Converted amounts (≈) assume the structure as drawn. “And” between values parts separate entries of the source, which are not always exact repeats. Equal entries are not always repeated.

Test [1] concerns A431 (Skin cancer) cell lines. In words: MTT assay, A431. The conditions noted are these: MTT, 48 hrs; for IC50: Homo sapiens, A-431, read-out: A431 cell lines IC50. It counts as cell-based. How it is done: (§1) A431 (Skin cancer), Colo-205 (Colon cancer), A549 (Lung cancer) cell lines were obtained from National Center for Cell science (NCCS), Pune, India. DMEM (Dulbeccos Modified Eagles Medium), MTT [3-(4,5-dimethylthiazol-2-yl)-2,5-diphenyl tetrazolium bromide], Trypsin, EDTA were purchased from Sigma Chemicals Co (St. Louis, Mo.), Fetal bovine serum were purchased from Arrow labs, 96 well flat bottom tissue culture plates were purchased from Tarson.
(§2) A431, Colo-205, A549 cell lines were grown as adherent cells in DMEM media supplemented with 10% fetal bovine serum, 100 μg/ml penicillin, 200 μg/ml streptomycin, 2 mM L-glutamine, and culture was maintained in a humidified atmosphere with 5% CO2. Stock solution of 10 mg/ml was prepared for test molecules in DMSO. From the stock, various dilutions were made with sterile water to get required concentration. A431, Colo-205, A549 cell lines were seeded at a density of 1×10^4 cells (cell number was determined by Trypan blue exclusion dye method) per each well in 100 μl of DMEM supplemented with 10% FBS. 12 hrs after seeding, above media was replaced with fresh DMEM supplemented with 10% FBS. Then, 10 μl sample from above stock solutions were added to each well in triplicates which gives final concentration of 100, 50, 25, 10 μg/well. The above cells were incubated for 48 hrs at 37° C. with 5% CO2. After 48 hrs incubation the above media was replaced with 100 μl of fresh DMEM with out FBS and to this 10 μl of MTT (5 mg dissolved in 1 ml of PBS) was added and incubated for 3 hrs at 37° C. with 5% CO2. After 3 hrs of incubation, the above media was removed with multi channel pipette, then 200 μl of DMSO was added to each well and incubated at 37° C. for 15 min. Finally, the plate was read at 570 nm using spectrophotometer (Spectra Max, Molecular devices).

Another test relates to Wistar rats. The test can be described thus: Carrageenan induced paw edema model. The conditions noted are these: for % Inhibition / Percentage Swelling (50 mg/kg) / Percentage Swelling (100 mg/kg) / Percentage Swelling (200 mg/kg): dose response study, n=6; for inhibition in vivo at 100 mg/kg / change in vivo at 100 mg/kg: Rattus norvegicus; for inhibition in vivo at 100 mg/kg: read-out: % Inhibition (paw volume); for change in vivo at 100 mg/kg: read-out: % Increase in Paw Volume. It counts as in vivo, rat. In general terms: Carrageenan injected into the paw causes an acute inflammation.

Another test has as its system Colo-205 (Colon cancer). In words: MTT assay, Colo-205. It counts as cell-based. The conditions noted are these: MTT, 48 hrs; for IC50: Homo sapiens, COLO 205, read-out: Colo-205 IC50. How it is done:
as §1, §2

Test [2] deals with crude intestinal α-glucosidase. In words: In-vitro mammalian (rat intestinal) α-glucosidase inhibition assay. It counts as biochemical. The conditions noted are these: for Mammalian α Glucosidase Inhibition (Mean ± S.E): highest concentration 5 mg/ml; for IC50: mammalian α-glucosidase, dose response study. The procedure, abridged:
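p-Nitrophenol release (405 nm) from 5 mM p-nitrophenyl glucoside, read 5 min after substrate addition following 5 min sample–enzyme preincubation in pH 6.8 phosphate buffer. Enzymes: baker's yeast α-glucosidase (0.76 U/ml) and sonicated rat intestinal acetone powder supernatant. Blank-corrected inhibition vs DMSO; IC50 by log regression.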

The subject of a further test is A549 (Lung cancer). In words: MTT assay, A549. It counts as cell-based. The conditions noted are these: MTT, 48 hrs; for IC50: Homo sapiens, A549, read-out: A549 IC50. How it is done: as §1, §2
(Tetrazolium dyes change colour on reduction, which living cells bring about.)

[3] abbreviates: test compounds 100 mg/kg oral, Indomethacin 10 mg/kg oral, 3 hrs after Carrageenan.

Regarding `Nc1c2c(nc3sc4c(c13)CCC4)CCCC2` [BN-14, 2,3,6,7,8,9-Hexahydro-1H-cyclopenta[4,5]thieno[2,3-b]quinolin-10-amine], the IC50 (usually the concentration at which inhibition is half-maximal) turned out to be 99.3 µg/mL (≈ 406 µM) in test [1], 223 µg/mL (≈ 913 µM) with Colo-205 (Colon cancer), 1560 µg/mL (≈ 6380 µM) in test [2] and 79.4 µg/mL (≈ 325 µM) with A549 (Lung cancer). Besides, the % Inhibition (as a rule, the share of the control response that was lost under treatment) with Wistar rats (50 mg/kg oral) was 19.80 ± 2.24%; with Wistar rats (100 mg/kg oral), 33.47 ± 6.70%; with Wistar rats (200 mg/kg oral), 56.45% and 56.45 ± 3.12%. Besides, the “Percentage Swelling (50 mg/kg)” value in the test with Wistar rats (50 mg/kg oral) turned out to be 72.34 ± 1.73 %. Moreover, the “Percentage Swelling (100 mg/kg)” value with Wistar rats (100 mg/kg oral) is reported as 71.30 ± 3.72 %. The “Percentage Swelling (200 mg/kg)” value in the test on Wistar rats (200 mg/kg oral) stood at 41.78 ± 3.31 %. Further, in the test with Wistar rats (setting [3]), the inhibition in vivo at 100 mg/kg worked out at 33.5 ± 8.35%. In addition, the “Mammalian α-glucosidase inhibitory activity (in words)” value in test [2] is given as “significant inhibitory activity”. Moreover, the “Mammalian α-glucosidase inhibition (Mean ± S.E)” value was 7.79 ± 3.11% in test [2] (0.039063 mg/ml); 20.75 ± 2.19% in test [2] (0.078125 mg/ml); 26.76 ± 1.37% in test [2] (0.15625 mg/ml); 34.49 ± 1.19% in test [2] (0.3125 mg/ml); 40.62 ± 0.63% in test [2] (0.625 mg/ml); 51.56 ± 0.74% in test [2] (1.25 mg/ml). In addition, the figures for the “Mammalian α-glucosidase inhibition (Mean ± S.E)” value in test [2] (2.5 mg/ml) and in test [2] (5 mg/ml) were 54.74 ± 1.01% and 58.37 ± 2.20%, respectively. In addition, the “Mammalian α Glucosidase Inhibition (Mean ± S.E)” value in test [2] is recorded as 58.37%.
Take `CC1CCc2c(nc3sc4c(c3c2N)CCC4)C1` (stereo not shown) [BN-15, 7-Methyl-2,3,6,7,8,9-hexahydro-1H-cyclopenta[4,5]thieno[2,3-b]quinolin-10-amine]: the IC50 in test [1] was 40.7 µg/mL (≈ 158 µM); in test [2], 299 µg/mL (≈ 1160 µM); in the test on A549 (Lung cancer), 72.4 µg/mL (≈ 280 µM). The change in vivo at 100 mg/kg in the test with Wistar rats (setting [3]) was found to be 86.5 ± 17.1%. In addition, the inhibition in vivo at 100 mg/kg with Wistar rats (setting [3]) was 23.5 ± 8.98%. In the test with Colo-205 (Colon cancer), the “Colo-205 IC50” value is recorded as “No activity”. Further, the “Mammalian α-glucosidase inhibitory activity (in words)” value in test [2] was “significant inhibitory activity”. For the same compound, the “Mammalian α-glucosidase inhibition (Mean ± S.E)” value in test [2] (0.039063 mg/ml) is listed as 11.85 ± 3.45%; in test [2] (0.078125 mg/ml), 31.57 ± 2.74%; in test [2] (0.15625 mg/ml), 40.72 ± 2.26%; in test [2] (0.3125 mg/ml), 52.37 ± 1.64%; in test [2] (0.625 mg/ml), 61.83 ± 0.26%; in test [2] (1.25 mg/ml), 78.49 ± 1.88%. Besides, the “Mammalian α-glucosidase inhibition (Mean ± S.E)” value in test [2] (2.5 mg/ml) is on record as 83.34 ± 3.13%; in test [2] (5 mg/ml) it was 88.87 ± 1.35%. For the same compound, in test [2], the “Mammalian α Glucosidase Inhibition (Mean ± S.E)” value is 88.87%.
With `Nc1c2c(nc3sc4c(c13)CCC4)CCCCC2` [BN-16, 1,2,3,6,7,8,9,10-Octahydrocyclohepta[b]cyclopenta[4,5]thieno[3,2-e]pyridine-11-amine], the values for the IC50 (in test [1]; in the test on Colo-205 (Colon cancer); in the test on A549 (Lung cancer)) were 63 µg/mL (≈ 244 µM), 123 µg/mL (≈ 476 µM) and 39.8 µg/mL (≈ 154 µM), respectively. Further, the “% Inhibition” value in the test with Wistar rats (50 mg/kg oral) was 20.47 ± 1.61%; in the test with Wistar rats (100 mg/kg oral) it was 44.90 ± 5.86%; in the test with Wistar rats (200 mg/kg oral) it was 56.0 ± 2.87%; with Wistar rats (200 mg/kg oral, listed as B-16), 57.53%. Also, the “Percentage Swelling (50 mg/kg)” value in the test with Wistar rats (50 mg/kg oral) was found to be 73.18 ± 2.41 %. For the same compound, the “Percentage Swelling (100 mg/kg)” value with Wistar rats (100 mg/kg oral) stood at 61.09 ± 5.86 %. Further, the “Percentage Swelling (200 mg/kg)” value in the test with Wistar rats (200 mg/kg oral) is reported as 45.60 ± 5.30 %. Further, in the test on Wistar rats (setting [3]), the change in vivo at 100 mg/kg turned out to be 61.1 ± 19.2%. In addition, in the test on Wistar rats (setting [3]), the inhibition in vivo at 100 mg/kg was 44.9 ± 5.86%. Also, the “Mammalian α Glucosidase Inhibition (Mean ± S.E)” value in test [2] is on record as 4.46 ± 1.77%.
With `Nc1c2c(nc3sc4c(c13)CCC4)CCCCCC2` [BN-17, 2,3,6,7,8,9,10,11-Octahydro-1H-cycloocta [b]cyclopenta[4,5]thieno[3,2-e]pyridin-12-amine], the “A431 cell lines IC50” value in test [1] worked out at 32.35 µg/mL. Further, the “% Increase in Paw Volume” value in the test on Wistar rats (setting [3]) stood at 76.85 ± 6.45%. For the same compound, in the test with Wistar rats (setting [3]), the “% Inhibition (paw volume)” value is recorded as 6.87 ± 4.76%. Also, the “Colo-205 IC50” value in the test with Colo-205 (Colon cancer) is 61.65 µg/mL. In test [2], the “Mammalian α-glucosidase inhibitory activity (in words)” value is recorded as “significant inhibitory activity”. The “Mammalian α-glucosidase inhibition (Mean ± S.E)” value is 10.04 ± 4.42% in test [2] (0.039063 mg/ml); 26.77 ± 1.83% in test [2] (0.078125 mg/ml); 34.53 ± 2.61% in test [2] (0.15625 mg/ml); 44.41 ± 1.52% in test [2] (0.3125 mg/ml); 52.44 ± 1.56% in test [2] (0.625 mg/ml); 66.57 ± 1.11% in test [2] (1.25 mg/ml). Also, the entries for the “Mammalian α-glucosidase inhibition (Mean ± S.E)” value in test [2] (2.5 mg/ml) and in test [2] (5 mg/ml) were 70.69 ± 2.75% and 75.39 ± 13.76%, respectively. For the same compound, the “Mammalian α Glucosidase Inhibition (Mean ± S.E)” value in test [2] came to 75.39%. Moreover, the IC50 in test [2] was 528 µg/mL (≈ 1940 µM). Also, in the test with A549 (Lung cancer), the “A549 IC50” value amounted to 40.7 µg/mL.
`Nc1c2c(nc3sc4c(c13)CCCCC4)CCC2` [BN-18, 1,2,3,6,7,8,9,10-Octahydrocyclohepta[4,5] thieno[2,3-b]cyclopenta [e]pyridin-11-amine]: the IC50 in test [1] was 53.7 µg/mL (≈ 208 µM). Besides, in the test with Wistar rats (setting [3]), the change in vivo at 100 mg/kg worked out at 62.8 ± 2% and the inhibition in vivo at 100 mg/kg is 17.4 ± 0.27%. Further, the IC50 in the test with Colo-205 (Colon cancer) is 47.8 µg/mL (≈ 185 µM). In test [2], the “Mammalian α-glucosidase inhibitory activity (in words)” value is reported as “moderate inhibitory activity” and the “Mammalian α Glucosidase Inhibition (Mean ± S.E)” value is recorded as 46.22 ± 4.15%. The IC50 in the test with A549 (Lung cancer) was found to be 39.8 µg/mL (≈ 154 µM).

The record behind these values is patent publication US20110269790A1, “NOVEL THIENOPYRIDINES AS PHARMACOLOGICALLY ACTIVE AGENTS” (priority 2009, published 2011).
